Source: US11029303B2, “PAH antibodies and uses thereof” (The Administrators of the Tulane Educational Fund, priority 2015, dated 2021)

Experiments:
[1] = target: T1, human aryl hydrocarbon receptor (AhR) (Homo sapiens, UniProt P35869); test: Yeast bioassay of human AhR activation (YCM3 yeast, LacZ reporter); format: cell-based; settings: for EC50: concentration inducing 50% of the activity of 100 μM phenanthrene, 18 hr, read-out: rEC50
T1 construct: host or cells: Saccharomyces cerevisiae strain YCM3 (derived from W303a), AhR and ARNT integrated on chromosome III under a galactose promoter
Source text: Cell culture. An engineered Saccharomyces cerevisiae yeast strain, YCM3, was used for the present study. YCM3 was derived from the W303a yeast strain and is made available to investigators through the American Type Culture Collection (ATCC, strain MYA-3637). Human Ah receptor and ARNT genes were inserted onto chromosome III under the control of galactose promoter. YCM3 was transformed with a LacZ reporter plasmid that is expressed upon interaction with ligand activated AHRC (FIG. 24). This modification process was described in a previous study (Fox et al., 2008). The yeast cells were maintained in a glucose-containing medium (0.67% yeast nitrogen base without amino acids, 2% glucose, supplemented with 0.01% uracil, adenine, leucine, and histidine), and the bioassay was performed in a galactose-containing medium (2% galactose substituted for glucose in the medium described herein). Medium components were purchased from Sigma Aldrich Chemical Company.
(§1) Yeast bioassay. The YCM3 yeast cells were diluted into the galactose medium to a final A600 nm of 0.04, plated into 96-well plates at 200 μl/well, and treated with various concentrations of PAHs for 18 hr at 30° C. During this time, the human AhR and aryl hydrocarbon receptor nuclear translocator (ARNT) were expressed in the presence of galactose and activated by PAH ligands in the cell to form the aryl hydrocarbon receptor complex (AHRC). After 18 hrs of incubation, yeast cells were suspended by pipetting, a 25 μl aliquot from each well was transferred into another 96-well assay plate and mixed with 225 μl substrate solution (60 mM Na2HPO4, 40 mM NaH2PO4, 1 mM MgCl2, 10 mM KCl, 0.2% sarkosyl, 1 mM dithiothreitol, and 0.4 mg/ml ortho-nitrophenyl-β-galactoside; pH, 7.0). The assay plate was incubated for ˜5 min at 37° C. and then 100 μl of a 1M Na2CO3 solution was added to stop the reaction and enhance the yellow color. Cell densities were determined from the first 96-well plate by measuring A600 nm and the color intensities of LacZ reactions determined by A405 nm from the corresponding wells of the second plate.
A450 sample is the measurement of a ligand-treated well at 405 nm absorbance and A450 empty is the measurement of a well that contains only medium and no cells. A600 sample is the measurement of yeast cell density of a ligand-treated well at 600 nm absorbance and A600 empty is the measurement of a well that contains only medium and no cells. Cell volume is the amount of cell suspension added per well in ml (for example 0.025 ml) and reaction time is the time period of the colorimetric reaction (for example 5 min). The lacZ units were calculated as a percentage relative to the positive control (β-naphthaflavone signal set as 100%), and the dose response curves were fitted using SlideWrite program (version 7.01, Advanced Graphics Software, Inc.) using the 2 parameter curve: y=m+a0*x/(a1+x) (2) where m=LacZDMSO value from the assay plate, a0=maximum effect and a1=half maximum effective concentrations (EC50).
Relative EC50 and EC25 (rEC50 and rEC25) values were further introduced to compare potencies of various methylated phenanthrenes. rEC50 and rEC25 were defined as the concentrations of the total PAH at which the AhR was activated to 50% or 25% of the activation observed in the 100 μM phenanthrene control, respectively. The 100 μM concentration was chosen because it was the maximum that can be achieved in the assay. The rEC50 and rEC25 and the errors associated with these values were calculated from the fitted curves. Specifically, the LacZ value corresponding to 50% or 25% of this value was calculated according to the following equations: y(EC50)=[lacZ(100 uM Phen)+LacZ(1% DMSO)]/2 (3) y(EC25)=[lacZ(100 uM Phen)+3*LacZ(1% DMSO)]/4 (4)
These calculated y values and the a0 and a1 values from the curve fits were then used to solve for x in equation (2) above. These x values represent the mean of rEC50 or rEC25 from the fitted curve. […]

YCM3 yeast cells = test: Toxicity to yeast cells in the yeast bioassay (inhibition of cell accumulation); format: cell-based, Saccharomyces cerevisiae; settings: up to 100 μM
Description: as §1, with “The assay plate was incubated for ˜5 min at 37° C. and then 100 μl of a 1M Na2CO3 solution was added to stop the reaction and enhance the yellow color.” left out
During the induction process, YCM3 yeast cells were incubated with varying concentrations of phenanthrene and its methylated derivatives and their signaling activities were measured via a colorimetric substrate. […] Differences in cell growth at the end of the 18 hr incubation period were normalized by measuring each culture's absorbance at 600 nm.

[2] = crystal; cited from earlier work
marine fish = settings: larvae of marine fish; cited from earlier work

T1 sequence (P35869 11-848): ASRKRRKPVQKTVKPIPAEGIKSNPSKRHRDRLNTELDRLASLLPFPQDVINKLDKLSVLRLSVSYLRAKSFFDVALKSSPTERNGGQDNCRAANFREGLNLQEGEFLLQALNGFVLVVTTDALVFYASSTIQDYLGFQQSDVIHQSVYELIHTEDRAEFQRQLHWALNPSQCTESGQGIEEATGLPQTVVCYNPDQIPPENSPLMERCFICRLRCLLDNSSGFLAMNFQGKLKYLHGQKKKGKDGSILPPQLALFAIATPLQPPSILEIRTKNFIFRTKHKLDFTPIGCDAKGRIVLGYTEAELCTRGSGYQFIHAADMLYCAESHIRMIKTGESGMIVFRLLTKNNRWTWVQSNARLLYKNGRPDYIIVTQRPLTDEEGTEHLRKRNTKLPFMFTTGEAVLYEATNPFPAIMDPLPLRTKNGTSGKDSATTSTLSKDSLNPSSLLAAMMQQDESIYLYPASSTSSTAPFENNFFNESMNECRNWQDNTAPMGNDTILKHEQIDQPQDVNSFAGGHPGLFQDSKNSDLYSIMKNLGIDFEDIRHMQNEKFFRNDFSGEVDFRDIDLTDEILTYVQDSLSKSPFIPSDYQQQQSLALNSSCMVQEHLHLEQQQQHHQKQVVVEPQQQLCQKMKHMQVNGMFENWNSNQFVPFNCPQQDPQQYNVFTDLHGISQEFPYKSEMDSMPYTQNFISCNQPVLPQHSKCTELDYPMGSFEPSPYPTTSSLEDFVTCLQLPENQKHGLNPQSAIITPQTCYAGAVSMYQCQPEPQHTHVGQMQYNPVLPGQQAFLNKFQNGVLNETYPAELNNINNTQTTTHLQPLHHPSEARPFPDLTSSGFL
T1 sequence (P27540 whole entry partner): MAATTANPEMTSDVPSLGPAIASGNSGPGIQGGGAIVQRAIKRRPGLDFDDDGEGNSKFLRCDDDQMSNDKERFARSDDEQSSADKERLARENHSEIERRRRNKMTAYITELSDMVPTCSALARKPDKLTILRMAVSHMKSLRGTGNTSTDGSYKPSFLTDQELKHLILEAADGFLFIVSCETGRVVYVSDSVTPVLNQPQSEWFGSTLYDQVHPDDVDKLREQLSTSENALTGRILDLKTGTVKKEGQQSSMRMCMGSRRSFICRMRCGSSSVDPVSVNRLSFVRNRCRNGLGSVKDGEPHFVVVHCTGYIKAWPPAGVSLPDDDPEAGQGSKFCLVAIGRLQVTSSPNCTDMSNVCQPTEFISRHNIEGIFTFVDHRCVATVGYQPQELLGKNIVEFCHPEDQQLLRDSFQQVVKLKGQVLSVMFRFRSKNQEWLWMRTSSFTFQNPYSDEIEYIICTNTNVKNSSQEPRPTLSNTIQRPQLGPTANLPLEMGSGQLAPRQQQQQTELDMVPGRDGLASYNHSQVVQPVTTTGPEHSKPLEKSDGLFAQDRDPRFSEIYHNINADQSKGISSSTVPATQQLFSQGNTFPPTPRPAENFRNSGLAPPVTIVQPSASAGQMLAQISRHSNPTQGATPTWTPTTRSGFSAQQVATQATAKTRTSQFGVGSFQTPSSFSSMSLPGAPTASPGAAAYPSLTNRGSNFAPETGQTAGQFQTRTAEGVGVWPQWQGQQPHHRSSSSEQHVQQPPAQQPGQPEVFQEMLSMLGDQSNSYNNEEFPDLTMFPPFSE

For `Cc1ccc2ccc3ccc(C)cc3c2c1` [3,6-DMP, 3,6-dimethylphenanthrene], the “rEC50 comparison (ANOVA post-test)” value [1] was “significantly more potent that 4-MP”, the “rEC25 comparison (ANOVA post-test)” value ([1]; 25% of the activity of 100 μM phenanthrene) was “significantly more potent than the 3-, 4- and 9-MPs” and the “response achieved in the assay” value ([1]; dose-response curve up to 100 μM) was “up to 50%”.

In the case of `Cc1cccc2c1ccc1ccccc12` [Clone 1-MP, 1-methylphenanthrene], the “concentration at which maximal response was reached” value [1] is reported as about 40 µM, the EC50 [1] is reported as 4 µM and the Emax at 18 h ([1]; human, 1 μM BNF set as 100%, read-out: maximal response) is reported as 109%.

For `Cc1ccc2c(ccc3ccccc32)c1` [Clone 2-MP, 2-methylphenanthrene], the EC50 [1] was 4.6 µM.

Molecule `Cc1ccc2ccc3ccccc3c2c1` [Clone 3-MP, 3-methylphenanthrene] has an EC50 [1] of 5.8 µM.

In the case of `Cc1cc2ccccc2c2ccccc12` [Clone 9-MP, 9-methylphenanthrene], the “toxicity to the yeast cells” value (YCM3 yeast cells) is reported as “less toxic to the yeast cells”.

In the case of `c1ccc2c(c1)ccc1ccccc12` [phenanthrene], the “solubility lower than biphenyl” value [2] is listed as 1000 fold and the “toxicity to the yeast cells” value (YCM3 yeast cells) is listed as “less toxic to the yeast cells”.

In the case of `Cc1cccc2c1ccc1cc(C(C)C)ccc12` [retene, 7-isopropyl-1-methylphenanthrene], the toxicity in vivo (marine fish) is given as “greater toxicity than unsubstituted phenanthrene”.
